# Test results published in US11649458B2, “Inhibiting angiotensinogen to attenuate aortic pathology in Marfan syndrome” (UNIVERSITY OF KENTUCKY RESEARCH FOUNDATION, priority 2020, dated 2023).
# Legend:
# [1] = test system: patients with Marfan syndrome; details: male less than 16 years old, female less than 15; losartan p=0.002, atenolol p<0.001; cited from earlier work
# FBN1 mgR/mgR mice = assay: Survival and ascending aortic diameter in FBN1 mgR/mgR mice with established aortic dilation infused with enalapril or losartan by osmotic mini pump; format: in vivo; details: for survival after 12 weeks versus PBS: mini pump from 6 weeks of age
# Experimental: Male and female fibrillin-1 hypomorphic (FBN1 mgR/mgR) mice (n=10-12/group) were stratified into treatment groups by aortic diameter at 6 weeks of age to ensure an equivalent average aortic diameter in each group at the start of the study. Osmotic mini pumps filled with PBS (vehicle), enalapril (2 mg/kg/d), or losartan (20 mg/kg/d) were implanted subcutaneously into mice after stratification. Mini pumps infusing drug or vehicle were replaced every 4 weeks for a total duration of 12 weeks. Wild type littermates (n=10) were infused with PBS as a negative control to the Marfan mouse model. Ascending aortic diameters from male and female FBN1 mgR/mgR mice and their wild type littermates were assessed by ultrasound every 4 weeks from 6 to 18 weeks of age. Aortic diameters were measured luminal edge to luminal edge during diastole.
# Fbn1^mgR/mgR mice = assay: Survival of Fbn1^mgR/mgR mice given losartan in drinking water starting at P24 or P50; format: in vivo; details: for survival compared to Fbn1^mgR/mgR mice receiving no drug, survival analysis starting at P50: p=0.017
# Text: Male (n=40) and female (n=28) Fbn1^mgR/mgR mice were randomized to receive losartan in drinking water (0.6 g/L) starting at either postnatal day 24 (P24) or 50 (P50). Data derived from these mice was compared to littermate Fbn1^mgR/mgR (20 males, 14 females) and wild type (15 males, 15 females) mice that were given vehicle only. All mice were terminated at 20 weeks of age. Mice that died during the study were necropsied to determine cause of death.
# [2] = test system: male FBN1^mgR/mgR (mgR) mice; assay: Losartan withdrawal in male FBN1^mgR/mgR mice, death by aortic rupture; format: in vivo
# Text: Withdrawal of losartan during late adolescence (52 days of age) was followed by 6/10 mice dying by aortic rupture within 4 weeks (shaded area). (*=p<0.05. Censored data include humane endpoints and non-rupture events.)
# [3] = test system: patients with Marfan syndrome; details: median follow-up 8 years; control group 5; p=0.14; cited from earlier work
# mouse models of TAA = details: cited from earlier work
# [4] = test system: individuals with Marfan syndrome; details: cited from earlier work
# [5] = female mgR mice, PBS=1.92+/-0.13, p=0.86, no significant difference
# [6] = male mgR mice, PBS=2.69+/-0.19 mm, p=0.24, no significant difference
smiles,measurement,setting,value
CC(C)NCC(O)COc1ccc(CC(N)=O)cc1 (stereo not drawn) [atenolol],change in aortic-root z scores over time with younger age of initiation,[1],greater decrease
CCOC(=O)[C@H](CCc1ccccc1)N[C@@H](C)C(=O)N1CCC[C@H]1C(=O)O [enalapril],survival after 12 weeks versus PBS,"FBN1 mgR/mgR mice; female mgR mice, p=0.094",no significant difference
same,maximum ascending aortic diameter after treatment for 12 weeks,FBN1 mgR/mgR mice; [5],1.89+/−0.31
same,survival after 12 weeks versus PBS,"FBN1 mgR/mgR mice; male mgR mice, p=0.224",no significant difference
same,maximum ascending aortic diameter after treatment for 12 weeks,FBN1 mgR/mgR mice; [6],2.04+/−0.27 mm
CCCCc1nc(Cl)c(CO)n1Cc1ccc(-c2ccccc2-c2nn[nH]n2)cc1 [losartan],survival benefit in female mice,"Fbn1^mgR/mgR mice; female Fbn1^mgR/mgR mice, survival not different from wild type females",not possible to detect a survival benefit
same,survival compared to Fbn1^mgR/mgR males receiving no drug,"Fbn1^mgR/mgR mice; males, losartan 0.6 g/L drinking water from P24, p<0.001, log-rank",increased
same,survival compared to wild type male mice,"Fbn1^mgR/mgR mice; males, losartan from P24, p=0.138",not different
same,survival compared to wild type mice,"Fbn1^mgR/mgR mice; males, losartan from P50, p=0.002",decreased
same,"survival compared to Fbn1^mgR/mgR mice receiving no drug, survival analysis starting at P50","Fbn1^mgR/mgR mice; males, losartan from P50",increased survival
same,"survival compared to Fbn1^mgR/mgR mice receiving no drug, survival analysis starting at P50","Fbn1^mgR/mgR mice; males, losartan from P50, listed as Losartan",improves survival
same,survival compared to Fbn1^mgR/mgR males receiving no drug,"Fbn1^mgR/mgR mice; males, losartan from P50, p=0.194",not different
same,efficacy when administered after significant thoracic aortic dilation has already occurred,FBN1 mgR/mgR mice; FBN1^mgR/mgR mice,not effective
same,survival after 12 weeks versus PBS,"FBN1 mgR/mgR mice; female mgR mice, p=0.094",no significant difference
same,maximum ascending aortic diameter after treatment for 12 weeks,FBN1 mgR/mgR mice; [5],1.98+/−0.17
same,survival after 12 weeks versus PBS,"FBN1 mgR/mgR mice; male mgR mice, p=0.224",no significant difference
same,maximum ascending aortic diameter after treatment for 12 weeks,FBN1 mgR/mgR mice; [6],2.42+/−0.28 mm
same,mortality due to aortic rupture compared to mgR controls,"[2]; male mgR mice, losartan in drinking water from 24 days of age, p<0.05",protected from mortality
same,mice dying by aortic rupture within 4 weeks of losartan withdrawal,[2]; withdrawal at 52 days of age,6/10
same,change in aortic-root z scores over time with younger age of initiation,[1],greater decrease
same,number of deaths,[3],0
same,aortic root expansion in Fbn1^C1041G/+ mice,mouse models of TAA; literature ref 9,decrease aortic root expansion
same,aortic expansion in other mouse models of TAA,mouse models of TAA; literature refs 6-11,reduces aortic expansion
CCCCC1=NC2(CCCC2)C(=O)N1Cc1ccc(-c2ccccc2-c2nnn[nH]2)cc1 [irbesartan],aortic root expansion,[4],significantly attenuated
